Measurements taken from patent US20070004620A1, “Fp receptor antagonists or pgf2 alpha antagonists for treating pathological conditions of the uterus” (priority 2002, published 2007).
“Also recorded” adds a separate entry of the source.

Experiments:
[1] = system: PGF2α receptor; conditions: cited from earlier work
[2] = target: T1, TP (Homo sapiens, UniProt P21731); conditions: 10 μM; cited from earlier work
T1 sequence (P21731 1-343): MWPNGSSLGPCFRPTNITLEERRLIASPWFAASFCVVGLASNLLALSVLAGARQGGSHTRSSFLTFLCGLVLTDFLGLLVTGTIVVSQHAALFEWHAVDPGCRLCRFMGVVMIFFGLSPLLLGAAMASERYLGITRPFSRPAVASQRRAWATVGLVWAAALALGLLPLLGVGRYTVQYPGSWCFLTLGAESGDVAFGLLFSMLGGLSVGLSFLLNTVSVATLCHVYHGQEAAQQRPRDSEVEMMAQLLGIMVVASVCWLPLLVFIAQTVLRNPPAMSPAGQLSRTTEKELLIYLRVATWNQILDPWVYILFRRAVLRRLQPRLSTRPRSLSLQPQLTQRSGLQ

[3] = target: T2, DP (Homo sapiens, UniProt Q13258); conditions: 10 μM; cited from earlier work
T2 sequence (Q13258 1-359): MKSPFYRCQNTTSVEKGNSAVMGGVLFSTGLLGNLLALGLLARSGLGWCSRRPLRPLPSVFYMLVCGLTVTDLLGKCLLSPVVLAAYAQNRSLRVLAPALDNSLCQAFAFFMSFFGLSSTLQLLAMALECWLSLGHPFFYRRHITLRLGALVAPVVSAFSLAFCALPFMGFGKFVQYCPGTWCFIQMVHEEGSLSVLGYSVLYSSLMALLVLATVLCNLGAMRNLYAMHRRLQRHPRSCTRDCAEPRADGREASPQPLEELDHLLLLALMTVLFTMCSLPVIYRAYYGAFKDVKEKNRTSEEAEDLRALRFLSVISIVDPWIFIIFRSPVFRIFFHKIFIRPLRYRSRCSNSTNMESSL

[4] = target: EP2 (Homo sapiens, UniProt P43116); conditions: 10 μM; cited from earlier work
[5] = target: EP4 (Homo sapiens, UniProt P35408); conditions: 10 μM; cited from earlier work
[6] = system: Ishikawa cells; experiment: Proliferation assay (BrdU incorporation ELISA) in Ishikawa cells; assay type: cell-based, human; conditions: U73122 2μM, no PGF2α
Experimental: Proliferation of Ishikawa cells was determined using a BrdU incorporation ELISA (Roche Diagnostics GmbH, Mannheim, Germany). Briefly, Ishikawa cells were seeded at 5×10^3 cells per well in a 96-well plate and allowed to adhere overnight. Cells were next starved for 24 hr with indomethacin 1.5 μg/ml before 24 h PGF2α treatment (1 nM-1 μM) in serum-free medium containing indomethacin. Inhibitors were added to cells for 60 min before PGF2α with the control well receiving the same concentration of vehicle. Following 24 h treatment, cells were labelled with BrdU for 4 h, then fixed and assayed for BrdU incorporation using standard immunohistochemical techniques. Results were plotted as percentages of untreated cells.

[7] = system: human endometrium; experiment: Total inositol phosphate (InsP) assay in human endometrium tissue; assay type: cell-based
Experimental: (§1) PGF2α stimulation of total InsP production was as described (21). Briefly, tissue samples or Ishikawa cells were incubated with inositol free DMEM containing 1% dialyzed heat-inactivated FCS and 0.5 μCi/well myo-[^3H]inositol (Amersham Pharmacia Biotech) for 48 hours. Medium was removed, and cells washed with 1 ml buffer (140 mM NaCl, 20 mM HEPES, 4 mM KCl, 8 mM glucose, 1 mM MgCl2, 1 mM CaCl2, 1 mg/ml bovine serum albumin) containing 10 mM LiCl. Cells were then incubated for 1 hour at 37° C. in 1 ml buffer with or without inhibitors. Following incubation agonist was added at the required concentration and cells incubated for 1 hour. Reactions were terminated by the removal of agonist and the addition of 500 μl ice cold 10 mM formic acid, which was incubated for 30 minutes at 4° C. Total [^3H] inositol phosphates was separated from the formic acid cell extracts on AG 1-X8 anion exchange resin (Bio-Rad) and eluted with a 1 M ammonium formate/0.1 M formic acid solution. The associated radioactivity was determined by liquid scintillation counting and plotted relative to protein concentrations determined using the modified Lowry method.

[8] = system: Ishikawa cells; experiment: Total inositol phosphate (InsP) assay in Ishikawa cells; assay type: cell-based, human; conditions: PGF2α 100 nM
Experimental: as §1

[9] = system: Ishikawa cells; experiment: ERK phosphorylation in Ishikawa cells; assay type: cell-based, human; conditions: 100 nM, treatment for 10 min
Experimental: ERK phosphorylation in Ishikawa cells. PGF2α 100 nM was incubated for 10 and 30 min. U73122 2 μM was pre-incubated for 60 min before treatment with PGF2α.

[10] = system: HCT-8; conditions: HCT-8 human colon adenocarcinoma cell line; cited from earlier work
[11] = system: HT-29; conditions: HT-29 human colon adenocarcinoma cell line; cited from earlier work

EP2, sequence (P43116 whole entry): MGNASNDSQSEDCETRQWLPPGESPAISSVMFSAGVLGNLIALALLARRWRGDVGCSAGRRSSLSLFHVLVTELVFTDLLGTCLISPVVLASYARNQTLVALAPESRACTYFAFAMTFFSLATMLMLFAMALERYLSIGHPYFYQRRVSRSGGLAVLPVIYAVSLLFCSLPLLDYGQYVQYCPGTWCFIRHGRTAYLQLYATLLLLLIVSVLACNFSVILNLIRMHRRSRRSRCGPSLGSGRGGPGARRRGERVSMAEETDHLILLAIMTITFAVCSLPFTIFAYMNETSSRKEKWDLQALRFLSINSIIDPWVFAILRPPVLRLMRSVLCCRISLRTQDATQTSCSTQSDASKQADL
EP4, sequence (P35408 whole entry): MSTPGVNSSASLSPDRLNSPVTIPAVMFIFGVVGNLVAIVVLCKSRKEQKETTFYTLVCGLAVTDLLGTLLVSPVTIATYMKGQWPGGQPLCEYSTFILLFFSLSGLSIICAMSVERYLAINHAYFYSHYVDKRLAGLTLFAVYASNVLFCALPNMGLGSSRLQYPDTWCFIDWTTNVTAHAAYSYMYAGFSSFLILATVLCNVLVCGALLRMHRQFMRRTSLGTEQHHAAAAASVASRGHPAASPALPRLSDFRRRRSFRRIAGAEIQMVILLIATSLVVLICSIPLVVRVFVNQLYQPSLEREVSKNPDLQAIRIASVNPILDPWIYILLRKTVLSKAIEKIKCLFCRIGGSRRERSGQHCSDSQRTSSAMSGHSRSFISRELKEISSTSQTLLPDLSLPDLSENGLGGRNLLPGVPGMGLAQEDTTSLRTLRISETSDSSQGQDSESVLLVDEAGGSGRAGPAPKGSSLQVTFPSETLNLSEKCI

CCCCC(F)[C@H](O)/C=C/[C@H]1CC[C@H](O)[C@@H]1C/C=C\CCCC(=O)O (stereo partly drawn) [AL-3138, 11-deoxy-16-fluoro PGF2α]
agonist activity at the PGF2α (FP) receptor [1]: weak partial agonist; also recorded: partial agonist of low efficacy | antagonist activity at the PGF2α (FP) receptor [1]: highly selective antagonist

O=C(O)CCC/C=C\C[C@@H]1[C@@H](/C=C/[C@H](O)C2Cc3ccccc3C2)[C@@H](F)C[C@@H]1O [AL-8810, (5Z, 13E)-(9S,11S,15R)-9,15-dihydroxy-11-fluoro-15-(2-indanyl)-16,17,18,19,20-pentanor-5,13-prostadienoic acid]
inhibition of functional responses of TP [2]: not to significantly inhibit | inhibition of functional responses of DP [3]: not to significantly inhibit | inhibition of functional responses of EP2 [4]: not to significantly inhibit | inhibition of functional responses of EP4 [5]: not to significantly inhibit | FP receptor antagonist potency [1]: micromolar | agonist activity at the PGF2α (FP) receptor [1]: weak partial agonist | antagonist activity at the PGF2α (FP) receptor [1]: highly selective antagonist

COc1ccc2c(c1)CC[C@@H]1[C@@H]2CC[C@]2(C)[C@@H](NCCCCCCN3C(=O)C=CC3=O)CC[C@@H]12 [U73122]
basal proliferation after pre-incubation with inhibitor [6]: 93.9±1.9%

Cc1ccc(S(=O)(=O)NC(=O)NN2CCCCCC2)cc1 [tolazamide]
antagonist activity at the PGF2α (FP) receptor [1]: very weak antagonists

CCCCNC(=O)NS(=O)(=O)c1ccc(C)cc1 [tolbutamide]
antagonist activity at the PGF2α (FP) receptor [1]: very weak antagonists

prostaglandin F2α [PGF2α]
concentration at which maximal InsP mobilisation was observed [7]: 100 nM | total InsP, maximum [8]: 29 cpm/mg protein | fold increase in phosphorylated ERK intensity compared to native ERK [9]: 6.6±0.7 fold | proliferation by PGF2α [10]: lack of proliferation | proliferation by PGF2α [11]: lack of proliferation
